Measured values from patent US7166706B2 (priority 2001, dated 2007).
Where two headings read alike, the source gives them in different places.

Tests used:
[1] = tested on: Mycosphaerella graminicola; assay type: cell-based
Pythium ultimum = assay type: cell-based
M. grisea spores = assay type: cell-based, Magnaporthe grisea
[2] = tested on: Magnaporthe grisea strain P1.2; assay type: cell-based; conditions: for mean percentage of growth of the M. grisea fungus: 5th day, control = 100%
Ustilago nuda = assay type: cell-based
Botrytis cinerea = assay type: cell-based
yeast reductoisomerase [3] = molecular target: T1, yeast reductoisomerase (Saccharomyces cerevisiae, UniProt P06168); assay: Kinetics of inhibition of the yeast reductoisomerase (NADPH absorbance at 340 nm); assay type: biochemical; conditions: for mechanism of inhibition with respect to the AHB substrate: 1/m3 linear in AHB concentration, enzyme 110 nM; for k0, inhibitor/enzyme association constant: yeast reductoisomerase 110 nM, 25° C., pH 7.5, AHB varied
Method: (§1) FIGS. 7A and 7B: Kinetics of inhibition of the yeast reductoisomerase in the presence of the inhibitors dimethylphosphinoyl-2-hydroxyacetate [A] and N-hydroxy-N-isopropyloxamate [B]. The enzyme activity measurements are carried out at 25° C. in 1 ml of the following reaction medium: 10 mM MgCl2, 250 μM NADPH, 0.48 mM AHB in 50 mM sodium Hepes buffer, pH 7.5, and in the presence of enzyme 110 nM.
The reactions are initiated by simultaneously adding varying amounts of inhibitors dimethylphosphinoyl-2-hydroxyacetate [A] and N-hydroxy-N-isopropyloxamate [B] (from 2 μM to 30 μM) to the reaction medium. The curves are plotted according to the equation (1), which makes it possible to determine the values for Kobs, the apparent rate of formation of the enzyme-inhibitor complex.
as §1, with “FIGS. 8A and 8B:” for “FIGS. 7A and 7B:”, “8A and 8B: Kinetics of” for “7A and 7B: Kinetics of”, “of enzyme at 110 nM.” for “of enzyme 110 nM.”
The reactions are initiated by simultaneously adding varying amounts of inhibitors [A] and [B] (from 2 μM to 50 μM) to the reaction medium.
FIGS. 9A and 9B: Determination of the association constant k0 for the dimethylphosphinoyl-2-hydroxyacetate [A] and for the N-hydroxy-N-isopropyloxamate [B] on the yeast reductoisomerase using the representation 1/Kobs as a function of the concentration of substrate AHB. The enzyme activity measurements are carried out at 25° C. in 1 ml of the following reaction medium: 10 mM MgCl2, 250 μM NADPH, from 125 μM to 2.375 mM AHB, and in 50 mM sodium Hepes buffer, pH 7.5, and in the presence of enzyme at 110 nM. The reactions are initiated by simultaneously adding varying amounts of substrate AHB (from 125 μM to 2.375 mM) and the inhibitors [A] (10 μM) and [B] (15 μM) to the reaction medium.
The curves are plotted according to the equation (3), which makes it possible to determine the values for k0, the rate of association of the inhibitor with the enzyme.
The effect of the inhibitors N-hydroxy-N-isopropyloxamate and dimethylphosphinoyl-2-hydroxyacetate on the yeast reductoisomerase was followed over time by measuring the decrease in absorbence of NADPH at 340 nm, in a spectrophotometer. […]
Equation (1): OD340=m1+(m2−m1).e^(−m3.t) where the parameters are as follows: • OD340 is the optical density measured on a spectrophotometer at 340 nm at time “t” • m1 the optical density when “t” tends toward infinity • m2 the initial optical density • m3 the product of the concentration of inhibitor multiplied by the apparent disappearance constant for NADPH. […]

yeast reductoisomerase [4] = molecular target: T1, yeast reductoisomerase; assay: Stoichiometry of binding of the inhibitors to the yeast reductoisomerase; assay type: biochemical; conditions: for stoichiometry of binding of the inhibitor to the yeast reductoisomerase: 0.1 nmol inhibitor completely inhibits 0.1 nmol enzyme; for type of inhibition (reversibility): yeast reductoisomerase
Method: FIGS. 6A and 6B: Stoichiometry for binding of the inhibitors dimethylphosphinoyl-2-hydroxyacetate and N-hydroxy-N-isopropyloxamate to the yeast reductoisomerase. The inhibitors Hoe 704 [A] and IpOHA [B] (0.1 nmol) are incubated with varying amounts of enzyme (0 to 0.4 nmol) for 20 minutes at 25° C. with 25 nmol of NADPH and 0.25 μmol of Mg^2+ in a volume of 10 μl. The enzyme activity measurements are carried out at 25° C. in 1 ml of the following reaction medium: 10 mM MgCl2, 250 μM NADPH, 0.48 mM AHB, and in 50 mM sodium Hepes buffer, pH 7.5.
The kinetic parameters for the yeast reductoisomerase were determined by following the evolution of the enzyme reaction in the spectrophotometer under saturating conditions with respect to magnesium, to NADPH and to AHB or AL substrate. All the enzyme activity measurements were carried out in a quartz cuvette with an optical path of 1 cm, containing sodium Hepes buffer (50 mM, pH 7.5), 10 mM MgCl2, 250 μM NADPH, in a final volume of 1 ml, at 25° C. The enzyme reaction was initiated by adding 0.48 mM of AHB or of AL. The evolution of this reaction was followed by virtue of the decrease in absorption of NADPH at 340 nm.
The study of the stoichiometry of binding of the inhibitors N-hydroxy-N-isopropyl-oxamate and dimethylphosphinoyl-2-hydroxyacetate was carried out by incubating varying amounts of enzyme (from 0.1 to 0.4 nmol) with a constant amount of inhibitor for 20 minutes, with 25 nmol of NADPH and 0.25 μmol of MgCl2, in a final volume of 10 μl. The reactions are initiated by adding 0.48 mM AHB in 50 mM sodium Hepes buffer, pH 7.5, containing 10 mM MgCl2.
In the presence of 0.1 nmol of dimethylphosphinoyl-2-hydroxyacetate, an enzyme activity is detected only with amounts of enzyme greater than […]. Similarly, in the presence of 0.1 nmol of N-hydroxy-N-isopropyloxamate, an enzyme activity is detected only for amounts of enzyme greater than 0.1 nmol (FIG. 6). In addition, for these two inhibitors, when the enzyme is in excess relative to the inhibitor in the reaction medium, the enzyme activities increase in parallel with those of the control without inhibitor. […] In fact, in the case of irreversible inhibition, in the presence of a low amount of enzyme, all the enzyme complexes with the inhibitor. The enzyme activity is then zero, since there is no longer any free enzyme in the reaction medium. When the amount of enzyme present in the reaction medium is greater than the amount of inhibitor, the free enzyme in excess in the medium then behaves like the control without inhibitor (straight line parallel to the control).

[5] = tested on: all the sensitive fungal species; assay type: cell-based
plant reductoisomerase = plant reductoisomerase (Spinacia oleracea, UniProt Q01292); conditions: cited from earlier work
[6] = Magnaporthe grisea, liquid minimum medium (Table 5; text gives concentrations in μM)

T1 sequence (P06168 48-395): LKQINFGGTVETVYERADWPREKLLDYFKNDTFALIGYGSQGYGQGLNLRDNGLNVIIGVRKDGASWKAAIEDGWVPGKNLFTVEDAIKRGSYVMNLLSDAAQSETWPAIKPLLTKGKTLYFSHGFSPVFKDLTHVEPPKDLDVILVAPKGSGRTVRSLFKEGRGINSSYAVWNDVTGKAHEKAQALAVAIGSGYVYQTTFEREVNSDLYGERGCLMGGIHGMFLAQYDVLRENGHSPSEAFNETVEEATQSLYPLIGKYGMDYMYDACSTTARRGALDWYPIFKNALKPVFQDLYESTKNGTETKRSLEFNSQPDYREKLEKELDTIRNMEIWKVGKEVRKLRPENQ
Chain of plant reductoisomerase (Q01292 73-595): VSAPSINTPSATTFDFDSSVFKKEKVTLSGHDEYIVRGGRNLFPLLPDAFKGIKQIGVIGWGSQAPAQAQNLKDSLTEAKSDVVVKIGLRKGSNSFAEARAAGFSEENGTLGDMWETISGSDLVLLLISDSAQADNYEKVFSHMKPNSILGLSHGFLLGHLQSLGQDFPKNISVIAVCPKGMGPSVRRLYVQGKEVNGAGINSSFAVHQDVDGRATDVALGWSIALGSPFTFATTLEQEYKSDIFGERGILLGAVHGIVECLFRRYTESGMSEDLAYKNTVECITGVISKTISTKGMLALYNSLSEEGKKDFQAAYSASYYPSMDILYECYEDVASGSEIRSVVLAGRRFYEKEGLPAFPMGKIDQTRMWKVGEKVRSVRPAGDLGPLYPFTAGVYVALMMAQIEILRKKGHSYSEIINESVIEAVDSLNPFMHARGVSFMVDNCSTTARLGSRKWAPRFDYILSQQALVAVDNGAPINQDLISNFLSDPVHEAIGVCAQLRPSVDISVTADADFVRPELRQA

Compound: CC(C)N(O)C(=O)C(=O)O [N-hydroxy-N-isopropyloxamate]
- ID50: concentration which inhibits fungal growth by 50% [1]: 1
- ID80: concentration which inhibits fungal growth by 80% [1]: 3
- Level of sensitivity to IpOHA [1]: Sensitive
- concentration from which growth is inhibited [1]: ≥ 0.3 µM
- ID50: concentration which inhibits fungal growth by 50% (Pythium ultimum): 10
- ID80: concentration which inhibits fungal growth by 80% (Pythium ultimum): 30
- Level of sensitivity to IpOHA (Pythium ultimum): Moderately sensitive
- concentration from which growth is inhibited (Pythium ultimum): ≥ 10 µM
- spore germination (M. grisea spores; 10 mM, in water or in minimum medium, at 24 and 72 hours): does not inhibit
- spore germination (M. grisea spores; 1 and 3 μM, minimum medium, days 0 and 2): not blocked
- mean percentage of growth of the M. grisea fungus ([2]; 0.03 μM inhibitor, MM + leucine, valine, isoleucine 0.3 mM (MM + ILV)): 77.5%
- mean percentage of growth of the M. grisea fungus ([2]; 0.03 μM inhibitor, minimum medium (MM)): 92%
- mean percentage of growth of the M. grisea fungus ([2]; 0.1 μM inhibitor, MM + ILV 0.3 mM): 83.5%
- mean percentage of growth of the M. grisea fungus ([2]; 0.1 μM inhibitor, minimum medium (MM)): 89%
- mean percentage of growth of the M. grisea fungus ([2]; 0.3 μM inhibitor, MM + ILV 0.3 mM): 81%
- mean percentage of growth of the M. grisea fungus ([2]; 0.3 μM inhibitor, minimum medium (MM)): 72%
- mean percentage of growth of the M. grisea fungus ([2]; 1 μM inhibitor, MM + ILV 0.3 mM): 72.5%
- mean percentage of growth of the M. grisea fungus ([2]; 1 μM inhibitor, minimum medium (MM)): 56%
- mean percentage of growth of the M. grisea fungus ([2]; 3 μM inhibitor, MM + ILV 0.3 mM): 71.5%
- mean percentage of growth of the M. grisea fungus ([2]; 3 μM inhibitor, minimum medium (MM)): 13%
- toxicity on growth when minimum medium is supplemented with valine, leucine and isoleucine ([2]; ILV at 0.3 mM, whatever the inhibitor concentration): lifted
- Level of sensitivity to IpOHA ([2]; Magnaporthe grisea): Sensitive
- ID50: concentration which inhibits fungal growth by 50% [2, 6]: 1
- ID80: concentration which inhibits fungal growth by 80% [2, 6]: 3
- inhibition of fungal growth ([2]; inhibitor 0.3 to 1 μM, MM medium, from the 3rd day): approximately 50%
- ID80 (concentration of inhibitor such that the inhibition in fungal growth is 80%) ([2]; minimum medium, 5th day of growth): 1000 nM
- concentration from which inhibition of growth is observed ([2]; minimum medium, from the 3rd day of growth): ≥ 0.3 µM
- ID50: concentration which inhibits fungal growth by 50% (Ustilago nuda): 3
- ID80: concentration which inhibits fungal growth by 80% (Ustilago nuda): 30
- IpOHA concentrations for which inhibition is lifted by isoleucine, leucine and valine (Ustilago nuda): less than 30 μM
- Level of sensitivity to IpOHA (Ustilago nuda): Moderately sensitive
- concentration from which growth is inhibited (Ustilago nuda): ≥ 10 µM
- Level of sensitivity to IpOHA (Botrytis cinerea): Resistant
- effect on growth at the highest concentration used (Botrytis cinerea): not affected
- mechanism of inhibition with respect to the AHB substrate (yeast reductoisomerase [3]): competitive
- k0, inhibitor/enzyme association constant (yeast reductoisomerase [3]): 12 433 M^−1.s^−1
- stoichiometry of binding of the inhibitor to the yeast reductoisomerase (yeast reductoisomerase [4]): 1 mol of inhibitor per mole of enzyme
- amount of enzyme above which an enzyme activity is detected (yeast reductoisomerase [4]; 0.1 nmol inhibitor, 20 min preincubation with NADPH and Mg2+): greater than 0.1 nmol
- type of inhibition (reversibility) (yeast reductoisomerase [4]): irreversible inhibitors
- toxicity when minimum medium is supplemented with isoleucine, leucine and valine [5]: lifted
- k0, inhibitor/enzyme association constant (plant reductoisomerase): 1900 M⁻¹ s⁻¹

Compound: CP(C)(=O)C(O)C(=O)O (centres unmarked) [dimethylphosphinoyl-2-hydroxyacetate]
- decrease in growth compared to control without inhibitor ([2]; inhibitor at 2 mM, MM medium, 6th and 7th day of growth): 50%
- mechanism of inhibition with respect to the AHB substrate (yeast reductoisomerase [3]): competitive
- k0, inhibitor/enzyme association constant (yeast reductoisomerase [3]): 7721 M⁻¹ s⁻¹
- stoichiometry of binding of the inhibitor to the yeast reductoisomerase (yeast reductoisomerase [4]): 1 mol of inhibitor per mole of enzyme
- type of inhibition (reversibility) (yeast reductoisomerase [4]): irreversible inhibitors
- k0, inhibitor/enzyme association constant (plant reductoisomerase): 22 000 M^−1.s^−1
